In patent publication US20160154928A1, “SYSTEMS, METHODS, AND ENVIRONMENT FOR AUTOMATED REVIEW OF GENOMIC DATA TO IDENTIFY DOWNREGULATED AND/OR UPREGULATED GENE EXPRESSION INDICATIVE OF A DISEASE OR CONDITION” (IMMUNEERING CORPORATION, priority 2013, published 2016):
Several values for one entry are separate records, joined by “and”; a condition that tells them apart may be missing. Identical values can stand only once.

Experiments:
SNAP25 expression = experiment: CMAP (Connectivity Map) expression profiles of cultured cells treated with compounds, searched for increased SNAP25 expression (single-sample Wilcox test); format: cell-based
Excerpt: The CMAP dataset is a large collection of microarray-based transcriptional signatures that includes over 7,000 expression profiles from cultured cells treated with 1,309 compounds. The full CMAP (builds 01 and 02) datasets were obtained from the Broad Institute. […] The output p-values were adjusted for multiple hypothesis testing (FDR p value <0.05).

NEUROD6 expression = experiment: CMAP (Connectivity Map) expression profiles of cultured cells treated with compounds, searched for increased NEUROD6 expression (single-sample Wilcox test); format: cell-based; conditions: for p.val (compounds identified to upregulate enriched NEUROD6 expression): single-sample Wilcox test on CMAP expression profiles, cultured cells after treatment
Excerpt: The full CMAP (builds 01 and 02) datasets were obtained from the Broad Institute. […] The output p-values were adjusted for multiple hypothesis testing (FDR p value <0.05).

mouse model of AD = conditions: cited from earlier work
mouse models of AD = conditions: cited from earlier work
female mouse model of AD = conditions: cited from earlier work

**Q.** With `CN(C(=O)C(Cl)Cl)c1ccc(O)cc1` [diloxanide] as the molecule, how does the “p.val (compounds identified to upregulate enriched SNAP25 expression)” value (SNAP25 expression; single-sample Wilcox test on CMAP expression profiles, cultured cells after treatment) read?
**A.** Its value is 1.28E−04.

**Q.** Which “p.val (compounds identified to upregulate enriched NEUROD6 expression)” value (NEUROD6 expression) does the source give for `CC(C)c1ccc2c(c1)c(SC(C)(C)C)c(CC(C)(C)C(=O)O)n2Cc1ccc(Cl)cc1` [MK-886] here?
**A.** Its value is 2.46E−04.

**Q.** Which cognitive function (mouse model of AD) does the source give for `CCN1C[C@]2(C)CC[C@H](O)[C@]34C1[C@@H](C[C@H]23)[C@@]1(O)C[C@H](OC)[C@H]2C[C@@H]4[C@@H]1[C@H]2O` [karakoline] here?
**A.** Its cognitive function is “improve cognitive function”.

**Q.** Which results are given for `CCCC(CCC)C(=O)O` [valproic acid]?
**A.** effect on SNAP25 expression (SNAP25 expression; CMAP analysis, in words): significantly elevate SNAP25 expression; Aβ production (mouse models of AD): limit Aβ production; behavioral deficits (mouse models of AD): limit Aβ production and behavioral deficits; loss of neurons (mouse models of AD): protect against loss of neurons

**Q.** Which “p.val (compounds identified to upregulate enriched NEUROD6 expression)” value (NEUROD6 expression) does the source give for `C[C@@H]1C[C@H]2O[C@@H]2/C=C\C=C\C(=O)Cc2c(Cl)c(O)cc(O)c2C(=O)O1` [monorden] here?
**A.** Its value is 2.17E−04 and 2.82E−04.

**Q.** With `O=CC[C@@H](O)[C@H](O)[C@H](O)CO` [2-deoxy-D-glucose] as the molecule, how does the pathology (female mouse model of AD) read?
**A.** The pathology was “reduce pathology”.

**Q.** For `C=C1C[C@@H](O)[C@H](/C=C/[C@@H](O)C(C)(C)CCCC)[C@H]1C/C=C\CCCC(=O)O` [meteneprost], which “p.val (compounds identified to upregulate enriched NEUROD6 expression)” value (NEUROD6 expression) is on record?
**A.** The value was 2.05E−04.

**Q.** Which “effect on NEUROD6 expression” value (NEUROD6 expression; CMAP analysis, in words) does the source give for `O=c1c(-c2ccc(O)cc2)coc2cc(O)cc(O)c12` [genistein] here?
**A.** The value was “significantly elevate expression of NEUROD6”.
